Test results as given in PubChem BioAssay (NCI).
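Test compounds were applied to cells in 96-well plates for 48 hours at 5 doses. Definition used: TGI = concentration required for complete inhibition of growth.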

Key:
Test in all cases: growth of human tumour cells (NCI), 48 h
SNB-19 CNS = system: SNB-19 CNS
IGROV1 ovarian = system: IGROV1 ovarian
SF-268 CNS = system: SF-268 CNS
786-0 renal = system: 786-0 renal
LOX IMVI melanoma = system: LOX IMVI melanoma
OVCAR-8 ovarian = system: OVCAR-8 ovarian
UACC-62 melanoma = system: UACC-62 melanoma
SF-539 CNS = system: SF-539 CNS
TK-10 renal = system: TK-10 renal
KM12 colon = system: KM12 colon
SNB-75 CNS = system: SNB-75 CNS
M14 melanoma = system: M14 melanoma
A549 NSCLC = system: A549 NSCLC
SF-295 CNS = system: SF-295 CNS
BT-549 breast = system: BT-549 breast
T-47D breast = system: T-47D breast
HCC-2998 colon = system: HCC-2998 colon
MDA-MB-435 = system: MDA-MB-435
HOP-62 NSCLC = system: HOP-62 NSCLC
NCI-H226 lung = system: NCI-H226 lung
MDA-MB-231 breast = system: MDA-MB-231 breast
CCRF-CEM leukemia = system: CCRF-CEM leukemia
NCI-H460 lung = system: NCI-H460 lung
NCI-H23 lung = system: NCI-H23 lung
SW-620 colon = system: SW-620 colon
UACC-257 melanoma = system: UACC-257 melanoma
OVCAR-4 ovarian = system: OVCAR-4 ovarian
DU-145 prostate = system: DU-145 prostate
NCI/ADR-RES ovarian = system: NCI/ADR-RES ovarian
EKVX NSCLC = system: EKVX NSCLC
HCT-15 colon = system: HCT-15 colon
HL-60(TB) leukemia = system: HL-60(TB) leukemia
ACHN renal = system: ACHN renal
OVCAR-5 ovarian = system: OVCAR-5 ovarian
UO-31 renal = system: UO-31 renal
RPMI-8226 leukemia = system: RPMI-8226 leukemia
HOP-92 NSCLC = system: HOP-92 NSCLC
SK-MEL-5 melanoma = system: SK-MEL-5 melanoma
SK-MEL-28 melanoma = system: SK-MEL-28 melanoma
U251 CNS = system: U251 CNS
CAKI-1 renal = system: CAKI-1 renal
OVCAR-3 ovarian = system: OVCAR-3 ovarian
SK-MEL-2 melanoma = system: SK-MEL-2 melanoma
MOLT-4 leukemia = system: MOLT-4 leukemia
HS 578T breast = system: HS 578T breast
COLO 205 colon = system: COLO 205 colon
NCI-H522 lung = system: NCI-H522 lung
SN12C renal = system: SN12C renal
HCT-116 colon = system: HCT-116 colon
MCF7 breast = system: MCF7 breast
MALME-3M melanoma = system: MALME-3M melanoma
HT29 colon = system: HT29 colon
PC-3 prostate = system: PC-3 prostate
MDA-N = system: MDA-N
SR leukemia = system: SR leukemia
K-562 leukemia = system: K-562 leukemia
SK-OV-3 ovarian = system: SK-OV-3 ovarian
A498 renal = system: A498 renal

c1ccc2c(c1)SC1=C(SC(=C3SC4=C(S3)Sc3ccccc3S4)S1)S2
TGI (SNB-19 CNS): > 100 µM
TGI (IGROV1 ovarian): > 100 µM
TGI (SF-268 CNS): > 100 µM
TGI (786-0 renal): > 100 µM
TGI (LOX IMVI melanoma): > 100 µM
TGI (OVCAR-8 ovarian): > 100 µM
TGI (UACC-62 melanoma): > 100 µM
TGI (SF-539 CNS): > 100 µM
TGI (TK-10 renal): > 100 µM
TGI (KM12 colon): > 100 µM
TGI (SNB-75 CNS): > 100 µM
TGI (M14 melanoma): > 100 µM
TGI (A549 NSCLC): > 100 µM
TGI (SF-295 CNS): > 100 µM
TGI (BT-549 breast): > 100 µM
TGI (T-47D breast): > 100 µM
TGI (HCC-2998 colon): > 100 µM
TGI (MDA-MB-435): > 100 µM
TGI (HOP-62 NSCLC): > 100 µM
TGI (NCI-H226 lung): > 100 µM
TGI (MDA-MB-231 breast): > 100 µM
TGI (CCRF-CEM leukemia): > 100 µM
TGI (NCI-H460 lung): > 100 µM
TGI (NCI-H23 lung): > 100 µM
TGI (SW-620 colon): > 100 µM
TGI (UACC-257 melanoma): > 100 µM
TGI (OVCAR-4 ovarian): > 100 µM
TGI (DU-145 prostate): > 100 µM
TGI (NCI/ADR-RES ovarian): > 100 µM
TGI (EKVX NSCLC): > 100 µM
TGI (HCT-15 colon): > 100 µM
TGI (HL-60(TB) leukemia): > 100 µM
TGI (ACHN renal): > 100 µM
TGI (OVCAR-5 ovarian): > 100 µM
TGI (UO-31 renal): > 100 µM
TGI (RPMI-8226 leukemia): > 100 µM
TGI (HOP-92 NSCLC): > 100 µM
TGI (SK-MEL-5 melanoma): > 100 µM
TGI (SK-MEL-28 melanoma): > 100 µM
TGI (U251 CNS): > 100 µM
TGI (CAKI-1 renal): > 100 µM
TGI (OVCAR-3 ovarian): > 100 µM
TGI (SK-MEL-2 melanoma): > 100 µM
TGI (MOLT-4 leukemia): > 100 µM
TGI (HS 578T breast): > 100 µM
TGI (COLO 205 colon): > 100 µM
TGI (NCI-H522 lung): > 100 µM
TGI (SN12C renal): > 100 µM
TGI (HCT-116 colon): > 100 µM
TGI (MCF7 breast): > 100 µM
TGI (MALME-3M melanoma): > 100 µM
TGI (HT29 colon): > 100 µM
TGI (PC-3 prostate): > 100 µM
TGI (MDA-N): > 100 µM

COc1cc(OC)c2c(c1-c1ccc(C)cc1)CC(C)N(Cc1ccccc1)[C@H]2C (stereo partly specified)
TGI (SNB-19 CNS): > 100 µM
TGI (SR leukemia): > 100 µM
TGI (IGROV1 ovarian): > 100 µM
TGI (SF-268 CNS): > 100 µM
TGI (786-0 renal): > 100 µM
TGI (LOX IMVI melanoma): > 100 µM
TGI (OVCAR-8 ovarian): > 100 µM
TGI (UACC-62 melanoma): > 100 µM
TGI (SF-539 CNS): > 100 µM
TGI (TK-10 renal): > 100 µM
TGI (KM12 colon): > 100 µM
TGI (SNB-75 CNS): > 100 µM
TGI (M14 melanoma): > 100 µM
TGI (A549 NSCLC): > 100 µM
TGI (SF-295 CNS): > 100 µM
TGI (BT-549 breast): > 100 µM
TGI (T-47D breast): > 100 µM
TGI (HCC-2998 colon): > 100 µM
TGI (MDA-MB-435): > 100 µM
TGI (HOP-62 NSCLC): > 100 µM
TGI (NCI-H226 lung): > 100 µM
TGI (K-562 leukemia): > 100 µM
TGI (MDA-MB-231 breast): > 100 µM
TGI (CCRF-CEM leukemia): > 100 µM
TGI (NCI-H460 lung): > 100 µM
TGI (NCI-H23 lung): > 100 µM
TGI (SW-620 colon): > 100 µM
TGI (SK-OV-3 ovarian): > 100 µM
TGI (UACC-257 melanoma): 68.5 µM
TGI (DU-145 prostate): > 100 µM
TGI (EKVX NSCLC): > 100 µM
TGI (HCT-15 colon): > 100 µM
TGI (HL-60(TB) leukemia): 43.4 µM
TGI (ACHN renal): > 100 µM
TGI (UO-31 renal): > 100 µM
TGI (RPMI-8226 leukemia): 52.3 µM
TGI (SK-MEL-5 melanoma): 51.5 µM
TGI (SK-MEL-28 melanoma): > 100 µM
TGI (CAKI-1 renal): > 100 µM
TGI (MOLT-4 leukemia): > 100 µM
TGI (HS 578T breast): 67.3 µM
TGI (COLO 205 colon): > 100 µM
TGI (NCI-H522 lung): 72.8 µM
TGI (SN12C renal): > 100 µM
TGI (A498 renal): > 100 µM
TGI (HCT-116 colon): > 100 µM
TGI (MCF7 breast): > 100 µM
TGI (MALME-3M melanoma): 53.2 µM
TGI (HT29 colon): 69.7 µM
TGI (PC-3 prostate): > 100 µM
TGI (MDA-N): > 100 µM

Cc1cnc(-n2c(C)nc3cc(Cl)ccc3c2=O)s1
TGI (SNB-19 CNS): > 100 µM
TGI (IGROV1 ovarian): > 100 µM
TGI (SF-268 CNS): > 100 µM
TGI (786-0 renal): > 100 µM
TGI (LOX IMVI melanoma): > 100 µM
TGI (OVCAR-8 ovarian): > 100 µM
TGI (UACC-62 melanoma): 68.1 µM
TGI (SF-539 CNS): 55.3 µM
TGI (TK-10 renal): > 100 µM
TGI (KM12 colon): > 100 µM
TGI (SNB-75 CNS): 70.4 µM
TGI (M14 melanoma): > 100 µM
TGI (A549 NSCLC): > 100 µM
TGI (SF-295 CNS): > 100 µM
TGI (BT-549 breast): > 100 µM
TGI (T-47D breast): 68.9 µM
TGI (HCC-2998 colon): 96.1 µM
TGI (MDA-MB-435): > 100 µM
TGI (HOP-62 NSCLC): > 100 µM
TGI (NCI-H226 lung): 93.8 µM
TGI (K-562 leukemia): > 100 µM
TGI (MDA-MB-231 breast): > 100 µM
TGI (CCRF-CEM leukemia): > 100 µM
TGI (NCI-H460 lung): > 100 µM
TGI (NCI-H23 lung): 97.7 µM
TGI (SW-620 colon): > 100 µM
TGI (SK-OV-3 ovarian): > 100 µM
TGI (UACC-257 melanoma): 99.6 µM
TGI (OVCAR-4 ovarian): > 100 µM
TGI (DU-145 prostate): 66.4 µM
TGI (NCI/ADR-RES ovarian): 94.5 µM
TGI (EKVX NSCLC): 35.8 µM
TGI (HCT-15 colon): > 100 µM
TGI (HL-60(TB) leukemia): > 100 µM
TGI (ACHN renal): 90.9 µM
TGI (OVCAR-5 ovarian): > 100 µM
TGI (UO-31 renal): 4.13 µM
TGI (HOP-92 NSCLC): > 100 µM
TGI (SK-MEL-5 melanoma): 34 µM
TGI (SK-MEL-28 melanoma): > 100 µM
TGI (U251 CNS): > 100 µM
TGI (CAKI-1 renal): > 100 µM
TGI (OVCAR-3 ovarian): > 100 µM
TGI (SK-MEL-2 melanoma): > 100 µM
TGI (MOLT-4 leukemia): > 100 µM
TGI (HS 578T breast): > 100 µM
TGI (COLO 205 colon): 40.2 µM
TGI (NCI-H522 lung): 92.1 µM
TGI (SN12C renal): > 100 µM
TGI (A498 renal): 61.7 µM
TGI (HCT-116 colon): 65.6 µM
TGI (MCF7 breast): 56.5 µM
TGI (MALME-3M melanoma): > 100 µM
TGI (HT29 colon): > 100 µM
TGI (PC-3 prostate): > 100 µM
TGI (MDA-N): 56.8 µM
